Reference: US20220280541A1, “METHOD FOR IDENTIFYING CARBOHYDRATE DRUG-SENSITIVE PATIENT IN PATIENTS HAVING ALZHEIMER'S DISEASE” (SHANGHAI GREEN VALLEY PHARMACEUTICAL CO., LTD., priority 2019, published 2022)
“Also recorded” adds a separate entry of the source.

Key:
Th1 cells [1] = experiment: Intraperitoneal injection of phenylalanine and isoleucine, blood Th1 cells; format: in vivo, mouse; conditions: WT (C57) mice, intraperitoneal injection 50 mg/kg for 4 days
Description: Animals. Tg mice and co-housed WT mice (corresponding WT mice generated by mating Tg mice and C57 mice) were housed in the same cage after birth. WT mice (C57) were housed in separate cages to avoid cross-transfer of microbiota. All mice were kept in a 23° C. room with a 12-hour (h) light-dark cycle. Mice were randomly assigned to different groups before treatment. For time course analysis of Tg mice, male and female Tg mice were sacrificed at 2, 3, 5, 7 and 9 months of age. The mouse brain was collected and stained for immune cell analysis and cytokine analysis. Before the mice were sacrificed, feces were collected for gut microbiota analysis. For OM1 treatment, at the age of 6.5 months, based on 450 mg b.i.d. (twice a day) in the phase III trial, Tg mice were treated with 100 mg/kg OM1 by oral administration once a day for one month. Behavioral tests were performed to monitor cognitive activity after the last treatment. […] All mouse movements that occur in PhenoTyper (HomeCage) are recorded by a computerized tracking system, which calculates the time and number of entrances required to reach 80% of the performance standard (Noldus, Ethovision). […]
Flow cytometry sample preparation and analysis. […] All samples were counted and adjusted to a density of 2-3×10^6/100 μL, labeled with a Live/Dead kit for 30 min, and then centrifuged at 500×g for 3 min at 4° C. […]

naive CD4^+ T cells = experiment: In vitro differentiation and proliferation induced by phenylalanine and isoleucine; format: cell-based, mouse; conditions: amino acid added directly to naive CD4^+ T cell culture
Description: In Vitro differentiation and proliferation induced by phenylalanine and isoleucine. Naive CD4^+ T cells were separated from the splenocytes of 8-month-old C57BL/6 female mice using the Naive CD4^+ T cell Isolation Kit (Stem Cell, #19765), and the cells were stained with CellTrace (Thermo Fisher, #C34557). A total of 1×10^5 cells/well in 0.2 mL of RPMI-1640 medium were plated in 96-well plates, and the culture medium was supplemented with cytokines or blocking antibodies. Th0: 10 ng/mL mIL-2; Th1:10 ng/mL mIL-2, 5000 ng/mL 11B11. Phenylalanine (final concentration, 2 mmol/L), isoleucine (final concentration, 2 mmol/L) and OM1 (final concentration, 100 μg/mL) were added into the indicated wells, respectively. After incubation at 37° C. in 5% CO2 for 5 days, cells were acquired on a BD Fortessa cytometer, and data were analyzed using FlowJo software.

Th1 cells [2] = experiment: Flow cytometry of brain Th1 cells in 5XFAD (Tg) mice; format: in vivo, mouse; conditions: 6-month-old 5XFAD mice, 50 mg/kg intraperitoneal daily for one month, versus vehicle
Description: Animals. Tg mice and co-housed WT mice (corresponding WT mice generated by mating Tg mice and C57 mice) were housed in the same cage after birth. […] All mice were kept in a 23° C. room with a 12-hour (h) light-dark cycle. Mice were randomly assigned to different groups before treatment. For time course analysis of Tg mice, male and female Tg mice were sacrificed at 2, 3, 5, 7 and 9 months of age. The mouse brain was collected and stained for immune cell analysis and cytokine analysis. […] For OM1 treatment, at the age of 6.5 months, based on 450 mg b.i.d. (twice a day) in the phase III trial, Tg mice were treated with 100 mg/kg OM1 by oral administration once a day for one month. […] The brains and feces of the mice were then used for different analyses.
Flow cytometry sample preparation and analysis. Mice were anesthetized, blood samples were collected into EDTA-containing tubes, and red blood cells were removed using 1×red blood lysis buffer. Before tissue collection, the brains were perfused with ice-cold PBS to avoid sampling the circulating blood immune cells, and the brains were removed, chopped into pieces and dissected according to the introduction of the Adult Brain Dissociation Kit (Miltenyi, Cat No. 130-107-677) using the gentleMACS dissociator (Miltenyi Biotec). The brain homogenate was filtered through a 70-μm cell strainer and centrifuged at 300×g for 5 min at 4° C. The cell pellet was resuspended in cold PBS buffer and centrifuged again at 300×g for 5 min at 4° C. All samples were counted and adjusted to a density of 2-3×10^6/100 μL, labeled with a Live/Dead kit for 30 min, and then centrifuged at 500×g for 3 min at 4° C. The cells were resuspended in 100 μL PBS buffer, blocked with anti-CD16/32 (Biolegend, Cat No. 101320) for 10 min, and incubated with the antibody according to the manufacturers' protocols at 4° C. for 30 min. […]

LAT1 = LAT1 (Homo sapiens, UniProt Q01650); conditions: cited from earlier work
SLC7A5 = biological target: T1, SLC7A5 (Mus musculus, UniProt Q9Z127); experiment: Uptake of ^13C-labelled phenylalanine by naive CD4^+ T cells; format: cell-based; conditions: 0.5 h incubation
T1 construct: endogenous in cells; host or cells: naive CD4+ T cells from splenocytes of C57BL/6 mice (Th0 and IL-12-induced Th1)
Description: Uptake of phenylalanine. Naive CD4^+ T cells were separated from the splenocytes of 8-month-old C57BL/6 female mice using the Naive CD4^+ T cell Isolation Kit (Stem Cell, Cat No. 19765) and were induced to Th1 differentiation by 20 ng/mL IL-12. After 3 days, a total of 5×10^5 cells/well Th1 cells and Th0 cells in 0.5 mL of RPMI-1640 medium were plated into 48-well plates. ^13C-labelled phenylalanine and 5 mM amino transporter inhibitor BCH were added into indicated wells. After 0.5 h, cells were collected and washed twice with ice-cold D-PBS. 50 μL deionized water was added and cells were lysed through freezing and thawing twice at −80° C. The cell lysate was centrifuged at 12000×g for 10 min and ^13C-labelled phenylalanine in the supernatant was analyzed by Mass spectrometry.

T1 sequence (Q9Z127 whole entry): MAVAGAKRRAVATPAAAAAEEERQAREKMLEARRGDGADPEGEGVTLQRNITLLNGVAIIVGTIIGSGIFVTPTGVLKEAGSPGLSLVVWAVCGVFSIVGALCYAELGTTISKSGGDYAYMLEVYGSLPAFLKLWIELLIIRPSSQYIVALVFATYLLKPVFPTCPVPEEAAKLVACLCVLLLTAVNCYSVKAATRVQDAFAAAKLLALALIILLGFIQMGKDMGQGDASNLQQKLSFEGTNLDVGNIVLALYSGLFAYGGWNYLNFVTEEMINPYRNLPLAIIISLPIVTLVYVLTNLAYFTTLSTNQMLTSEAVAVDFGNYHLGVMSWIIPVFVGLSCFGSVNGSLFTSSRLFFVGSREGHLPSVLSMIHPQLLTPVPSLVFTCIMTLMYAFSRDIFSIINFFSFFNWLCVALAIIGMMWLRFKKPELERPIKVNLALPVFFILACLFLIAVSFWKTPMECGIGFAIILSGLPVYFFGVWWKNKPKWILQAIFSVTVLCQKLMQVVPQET
T1 sequence (P10852 whole entry partner): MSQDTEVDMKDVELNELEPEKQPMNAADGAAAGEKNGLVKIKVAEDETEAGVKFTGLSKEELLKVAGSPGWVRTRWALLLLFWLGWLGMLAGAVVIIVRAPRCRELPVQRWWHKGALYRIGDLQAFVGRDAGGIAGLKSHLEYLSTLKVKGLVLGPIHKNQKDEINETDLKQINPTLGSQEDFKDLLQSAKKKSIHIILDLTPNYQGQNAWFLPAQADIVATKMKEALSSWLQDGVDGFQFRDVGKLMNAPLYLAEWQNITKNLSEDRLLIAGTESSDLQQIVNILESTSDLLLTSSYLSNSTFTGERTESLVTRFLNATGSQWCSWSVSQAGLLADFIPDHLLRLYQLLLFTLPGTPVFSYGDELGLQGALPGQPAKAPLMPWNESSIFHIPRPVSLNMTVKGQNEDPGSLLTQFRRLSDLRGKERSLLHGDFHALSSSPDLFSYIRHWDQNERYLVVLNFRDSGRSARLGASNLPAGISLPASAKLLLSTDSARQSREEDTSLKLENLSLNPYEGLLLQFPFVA
Sequence of LAT1 (Q01650 whole entry, species assumed): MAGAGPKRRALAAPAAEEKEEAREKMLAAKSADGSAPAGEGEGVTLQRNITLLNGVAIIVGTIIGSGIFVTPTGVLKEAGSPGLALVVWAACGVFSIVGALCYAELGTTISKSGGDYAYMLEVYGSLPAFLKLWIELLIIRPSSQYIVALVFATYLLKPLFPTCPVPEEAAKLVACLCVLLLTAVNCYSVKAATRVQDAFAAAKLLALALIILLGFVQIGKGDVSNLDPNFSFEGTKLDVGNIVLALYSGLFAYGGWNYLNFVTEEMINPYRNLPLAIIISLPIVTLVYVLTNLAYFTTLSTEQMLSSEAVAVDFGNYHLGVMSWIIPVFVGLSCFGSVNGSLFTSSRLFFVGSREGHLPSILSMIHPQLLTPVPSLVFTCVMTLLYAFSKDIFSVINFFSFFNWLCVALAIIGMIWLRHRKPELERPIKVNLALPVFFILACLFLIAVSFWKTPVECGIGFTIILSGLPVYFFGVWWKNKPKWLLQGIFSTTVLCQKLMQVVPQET
Sequence of LAT1 (P08195 102-630 partner, species assumed): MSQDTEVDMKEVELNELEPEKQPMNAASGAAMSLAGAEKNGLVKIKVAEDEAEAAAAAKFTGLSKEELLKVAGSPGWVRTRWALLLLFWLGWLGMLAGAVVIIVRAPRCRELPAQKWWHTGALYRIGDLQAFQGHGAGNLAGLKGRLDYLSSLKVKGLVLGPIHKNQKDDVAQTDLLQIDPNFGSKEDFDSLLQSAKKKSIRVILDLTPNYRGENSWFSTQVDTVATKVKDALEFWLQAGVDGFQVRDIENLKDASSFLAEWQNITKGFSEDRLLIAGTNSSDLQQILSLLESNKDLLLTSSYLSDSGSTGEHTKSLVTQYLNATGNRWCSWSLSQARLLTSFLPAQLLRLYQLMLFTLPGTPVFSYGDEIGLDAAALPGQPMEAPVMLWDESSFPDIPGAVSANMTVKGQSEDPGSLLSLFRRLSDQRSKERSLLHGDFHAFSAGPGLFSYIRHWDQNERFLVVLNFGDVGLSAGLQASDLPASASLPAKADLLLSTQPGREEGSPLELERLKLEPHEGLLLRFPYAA

| Compound | Th1 cell count in the blood (Th1 cells [1]) | Th0 cell differentiation into Th1 cells (naive CD4^+ T cells) | Th1 cell proliferation (naive CD4^+ T cells) | proportion of pro-inflammatory Th1 cells in the mouse brain (Th1 cells [2]; 50 mg/kg) | proportion of pro-inflammatory Th1 cells in the mouse brain (Th1 cells [2]; listed as JPH 203, 50 mg/kg) | LAT1 inhibition, selectivity (LAT1) | uptake of ^13C-labelled phenylalanine by CD4^+ T cells (SLC7A5) |
| --- | --- | --- | --- | --- | --- | --- | --- |
| N[C@@H](Cc1ccccc1)C(=O)O [phenylalanine] | increased significantly | increased | increased |  |  |  |  |
| Nc1cc(COc2c(Cl)cc(C[C@H](N)C(=O)O)cc2Cl)c2oc(-c3ccccc3)nc2c1 [JPH203] |  |  |  | effectively inhibits; also recorded: significantly downregulated | significantly reduces | selectively inhibits LAT1 | blocked |
| CC[C@H](C)[C@H](N)C(=O)O [isoleucine] | increased significantly | increased | increased |  |  |  |  |
